Test results published in patent US20100016247A1, “USING BUDDING YEAST TO SCREEN FOR INHIBITORS OF AURORA KINASES” (FLORIDA STATE UNIVERSITY RESEARCH FOUNDATION, priority 2008, published 2010).
Like-named read-outs stand apart in the source and are kept apart here.

Key:
MCF-7 cells = assay: Cell growth assay (MTT, cell counting); format: cell-based, human; conditions: for growth inhibition by MTT assay: MCF-7, 48 hours
Method: (§1) A549, Hela and MCF-7 cell lines are cultured in 96-well tissue culture plates at a cell density of 5,000 cells per well in RPMI-I640 or MEM containing 10% fetus bovine serum and 2 mM L-glutamine. After attachment overnight, the medium is replaced and cells are incubated with increasing concentrations of Jadomycin B or its two derivatives, Jadomycin S and T (ranging from 10^−4 M to 10^−8 M). After treatment for 48 hours, 3-(4,5-dimethylthiazol-2-yl)-2,5-diphenyltetrazolium bromide (MTT) assays are carried out in triplication. The concentration-viability curves are fitted and IC50 values are determined. Cells are also plated at a cell density of 10,000 cells per well in six-well tissue culture plates. After attachment overnight, cells are treated with 0, 5, or 10 μg/ml Jadomycin B for 96 hours. Cells are detached every 24 hr by trypsinization to count the cell number. All experiments are repeated three times.

A549 cells [1] = assay: Cell growth assay (MTT, cell counting); format: cell-based, human; conditions: for growth inhibition by MTT assay: A549, 48 hours
Method: as §1

Hela cells = assay: Cell growth assay (MTT, cell counting); format: cell-based, human; conditions: for growth inhibition by MTT assay: Hela, 48 hours
Method: as §1

A549 cells [2] = assay: FACS analysis of apoptosis and cell cycle distribution; format: cell-based, human; conditions: 5 μg/ml
Method: A549 cells in exponential growth phase are treated with 0 or 5 μg/ml Jadomycin B for up to 48 hours. Cells collected at the indicated times are fixed and stained with Propidium Iodide (PI). FACS analysis is performed to determine the percentage of apoptotic cells and cell cycle distribution by using the EPICS XL flow cytometer and System II software.

[3] = system: phosphorylated histone H3 (Ser10) in A549 cells; assay: Western blotting of phosphorylated histone H3 (Ser10); format: cell-based, human; conditions: 24 hr
Method: (§2) Cells are washed with cold PBS and whole-cell extracts are prepared with RIPA lysis buffer containing 60 μg/ml of PMSF. Equal amounts of protein (30 μg) are resolved with 15% SDS-PAGE. After transfer, the membranes are incubated overnight with primary antibodies (1:1000) against phosphorylated histone H3 (Ser10) (Cell Signaling Technology) and β-tubulin (Santa Cruz Biotechnology) at 4° C. The membranes are then incubated with HRP-conjugated goat anti-rabbit secondary antibody (Santa Cruz) at 1:200 followed by Chemiluminescence staining (Millipore).

A549 cells [4] = assay: Hoechst 33342 staining, chromatin condensation and apoptotic body; format: cell-based, human; conditions: 5 μg/ml, 48 hours
Method: Hoechst 33342 is a fluorescence dye that can be embedded in DNA double helix and emit blue fluorescence when excited with UV light. Treated and untreated A549 cell samples with 5 μg/ml Jadomycin B for 48 hours are stained with 100 ng/ml Hoechst 33342 for 10 minutes in dark. Stained cells are visualized with a Nikon ECLIPSS TE2000-U fluorescence microscope (Japan) at 100× and 400× magnification. Apoptotic cells show brightly stained nuclei because of the chromosome condensation and the appeared apoptotic bodies.

[5] = system: ipl1-321 mutant yeast cells; assay: Growth of ipl1-321 mutant yeast cultures by OD600; format: cell-based, Saccharomyces cerevisiae; conditions: 25° C.; for growth inhibition of ipl1-321 cells: 10 μg/ml, 24 hr, vs untreated control
Method: (§3) Wild-type and ipl1-321 mutant yeast strains are used for this purpose. […] After incubation at about 25° C. for about 24 hrs, the growth of the yeast cultures in the presence of tested compounds is determined by measuring OD600.

H460 cells = conditions: cited from earlier work
[6] = system: phosphorylated histone H3 (Ser10) in Hela cells; assay: Western blotting of phosphorylated histone H3 (Ser10); format: cell-based, human; conditions: 10 μg/ml, 24 hours
Method: as §2, with “A549 cells in the exponential growth phase are treated with 0, 1.25, 2.5, 5, 7.5, or 10 μg/ml Jadomycin B for 24 hours, while Hela and HepG2 cells are treated with 0 or 10 μg/ml of Jadomycin B. Cells” for “Cells”

[7] = system: phosphorylated histone H3 (Ser10) in HepG2 cells; assay: as above; format: cell-based, human; conditions: HepG2, 10 μg/ml, 24 hours
Method: as §2, with “A549 cells in the exponential growth phase are treated with 0, 1.25, 2.5, 5, 7.5, or 10 μg/ml Jadomycin B for 24 hours, while Hela and HepG2 cells are treated with 0 or 10 μg/ml of Jadomycin B. Cells” for “Cells”

HepG2 cells = conditions: cited from earlier work
[8] = molecular target: T1, purified recombinant human Aurora-B kinase (Homo sapiens, UniProt Q96GD4); assay: In vitro Aurora-B kinase activity assay (ELISA kit); format: biochemical; conditions: for inhibitory effect on Aurora-B: same condition as FIG. 3A, data not shown
T1 construct: purchased Cell Signaling Technology
Method: To determine the inhibition of Aurora-B kinase activity by Jadomycin B, an Aurora-B kinase activity assay kit (Cell Signaling Technology) is used according to the manufacturer's instruction. Briefly, 100 ng of purified recombinant human Aurora-B kinase is added to a 100 μl reaction mixture containing 1× kinase buffer and 25 μM cold ATP in the presence of different concentrations of Jadomycin B (ranging from 10^−4 M to 10^−10 M). After incubation at room temperature for 15 min, biotinylated peptide substrate (Cell Signaling Technology) is added to each reaction mixture at a final concentration of 1.5 μM, and the mixtures are further incubated for 30 min. A parallel control experiment is performed under the same conditions without Jadomycin B. The reaction is stopped by addition of 50 μM EDTA (pH 8). The 25 μl reaction mixture is then transferred to a streptavidin-coated 96-well plate (PerkinElmer, Inc) and incubated at room temperature for 60 min. After washing three times with PBS/T, the […] (Ser10) antibody (Cell Signaling Technology) is added to the plate for further incubation at 37° C. for 120 min. After washing, FITC-labeled secondary antibody (Santa Cruz) is added. After incubation at room temperature for 30 min, the plate is finally washed five times, and the fluorescence signal is determined with BMG Polarstar Galaxy (Germany) at 535 nm. The inhibition ratio by Jadomycin B at each concentration is calculated according to the following equation: % Inhibition=100×(1−countstreated/countscontrol). The inhibition curve is then fitted by Originpro7.5 program and the IC50 value of Jadomycin B is determined.
To determine the mode of inhibition of Aurora-B by Jadomycin B, the kinase activity is also examined in the presence of different concentrations of ATP (25, 50, 75, 100, and 200 μM). The inhibition ratio of Aurora-B kinase activity by Jadomycin B at various concentrations is calculated as described above and the inhibition curve is fitted. The IC50 value of Jadomycin B at each ATP concentration is then determined and a linear fit is made with all five IC50 values. The Ki is determined from the intercept of the plot of [ATP] versus IC50 values (IC50=Ki/Km[ATP]+Ki).

wild-type yeast cells = assay: Growth of wild-type yeast cultures by OD600; format: cell-based, Saccharomyces cerevisiae; conditions: 25° C.
Method: as §3

IM-9 cells = conditions: cited from earlier work
IM9/Bcl-2 cells = conditions: cited from earlier work

T1 sequence (Q96GD4 whole entry): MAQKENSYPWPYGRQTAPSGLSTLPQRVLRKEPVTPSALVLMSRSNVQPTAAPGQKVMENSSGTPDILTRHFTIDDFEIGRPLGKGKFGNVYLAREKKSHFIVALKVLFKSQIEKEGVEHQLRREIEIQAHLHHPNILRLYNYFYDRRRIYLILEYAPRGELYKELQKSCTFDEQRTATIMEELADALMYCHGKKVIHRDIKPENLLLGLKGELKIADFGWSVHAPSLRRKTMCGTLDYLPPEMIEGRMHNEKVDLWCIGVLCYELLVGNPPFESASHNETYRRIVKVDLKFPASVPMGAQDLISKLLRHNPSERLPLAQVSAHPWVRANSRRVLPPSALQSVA

CC[C@H](C)[C@H]1C(=O)O[C@H]2c3cc(C)cc(O)c3C3=C(C(=O)c4c(O[C@H]5C[C@@H](O)[C@@H](O)[C@H](C)O5)cccc4C3=O)N12 [Jadomycin B]
growth curve, sensitivity of cell line (MCF-7 cells; MCF-7, 0, 5 or 10 μg/ml, 96 hours, cell counting): sensitive
growth curve, sensitivity of cell line (A549 cells [1]; A549, 0, 5 or 10 μg/ml, 96 hours, cell counting): sensitive
growth inhibition by MTT assay (A549 cells [1]): most sensitive
growth curve, sensitivity of cell line (Hela cells; Hela, 0, 5 or 10 μg/ml, 96 hours, cell counting): sensitive
effect on cell cycle (A549 cells [2]): does not block cell cycle
increase of cells in S phase (A549 cells [2]): 2%
percentage of apoptotic cells, treated versus untreated (A549 cells [2]; 3 hr): almost no difference
portion of apoptotic cells (sub-G1) (A549 cells [2]; 12 hr): 17.8%
portion of apoptotic cells (sub-G1) (A549 cells [2]; 24 hr): 44%
portion of apoptotic cells (sub-G1) (A549 cells [2]; 48 hr): 71.7%
reduction of H3 phosphorylation (grayscale scanning) ([3]; A549, 2 μg/ml): 28%
phosphorylated histone H3 band on western blot ([3]; A549, 10 μg/ml): do not express any detectable phosphorylated histone H3
reduction of H3 phosphorylation (grayscale scanning) ([3]; A549, 10 μg/ml): 73%
apoptosis by Hoechst 33342 staining (A549 cells [4]): more and more cells underwent apoptosis
growth inhibition of ipl1-321 mutant cells ([5]; 5 μg/ml, 24 hours): 50%
growth inhibition of ipl1-321 cells [5]: almost completely
inhibition of proliferation (H460 cells): inhibits the proliferation
levels of phosphorylated histone H3 [6]: significant decrease
levels of phosphorylated histone H3 [7]: significant decrease
inhibition of proliferation (HepG2 cells): inhibits the proliferation
IC50 ([8]; 25 μM ATP, ATP titration FIG. 3B, read-out: IC50 for Aurora-B at given ATP concentration): 12.5 µM
IC50 ([8]; 25 μM ATP, fitted inhibition curve FIG. 3A, read-out: IC50 for inhibition of Aurora-B kinase activity): 10.5 µM
IC50 ([8]; 50 μM ATP, read-out: IC50 for Aurora-B at given ATP concentration): 16.6 µM
IC50 ([8]; 75 μM ATP, read-out: IC50 for Aurora-B at given ATP concentration): 24.5 µM
IC50 ([8]; 100 μM ATP, read-out: IC50 for Aurora-B at given ATP concentration): 32.2 µM
IC50 ([8]; 200 μM ATP, read-out: IC50 for Aurora-B at given ATP concentration): 53.1 µM
Ki ([8]; from linear fit of IC50 versus [ATP]): 6.8 µM
mode of inhibition of Aurora-B kinase ([8]; with respect to ATP, 5 ATP concentrations): competitive inhibition
growth inhibition of wild-type cells (wild-type yeast cells; 5 μg/ml, 24 hours): little growth inhibition
growth inhibition of wild-type cells (wild-type yeast cells; 10 μg/ml, 24 hr): uninhibited
growth inhibition of wild-type cells (wild-type yeast cells; 100 μg/ml, 24 hours): 60%
inhibition of proliferation (IM-9 cells): inhibits the proliferation
inhibition of proliferation (IM9/Bcl-2 cells): inhibits the proliferation

Cc1cc(O)c2c(c1)[C@@H]1OC(=O)[C@H](CO)N1C1=C2C(=O)c2cccc(O[C@H]3C[C@@H](O)[C@@H](O)[C@H](C)O3)c2C1=O [Jadomycin S, reference compound]
growth inhibition by MTT assay (MCF-7 cells): inhibited growth
growth inhibition by MTT assay (A549 cells [1]): inhibited growth
growth inhibition by MTT assay (Hela cells): inhibited growth
growth inhibition of ipl1-321 cells [5]: neither shows inhibitory effect
inhibitory effect on Aurora-B [8]: no inhibitory activity is detected

Cc1cc(O)c2c(c1)[C@@H]1OC(=O)[C@H]([C@H](C)O)N1C1=C2C(=O)c2cccc(O[C@H]3C[C@@H](O)[C@@H](O)[C@H](C)O3)c2C1=O [Jadomycin T, reference compound]
growth inhibition by MTT assay (MCF-7 cells): inhibited growth
growth inhibition by MTT assay (A549 cells [1]): inhibited growth
growth inhibition by MTT assay (Hela cells): inhibited growth
growth inhibition of ipl1-321 cells [5]: neither shows inhibitory effect
inhibitory effect on Aurora-B [8]: no inhibitory activity is detected
